Key:
[1] = molecular target: T1, hormone-binding pocket of the AR-LBD (Rattus norvegicus, UniProt P15207); test: AR fluorescence polarization (FP) competitor assay; conditions: FIG. 8
T1 construct: purchased Invitrogen P3018
T1 sequence (P15207 651-882 limits assumed): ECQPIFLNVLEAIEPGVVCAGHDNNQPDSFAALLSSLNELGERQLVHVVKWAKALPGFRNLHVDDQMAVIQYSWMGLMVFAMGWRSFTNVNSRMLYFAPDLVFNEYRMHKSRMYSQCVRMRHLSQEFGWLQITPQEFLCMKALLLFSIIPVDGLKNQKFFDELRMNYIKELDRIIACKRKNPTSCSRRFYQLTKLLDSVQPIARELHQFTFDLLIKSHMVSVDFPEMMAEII
Text: The fluorescence polarization was used as a read-out and normalized to that of DMSO vehicle. Results are reported as average±s.d. of experiments performed in triplicates. DHT is included as a positive control.

Bic-LNCaP cells = test: MTT cellular growth, Bic-LNCaP; format: cell-based; conditions: FIG. 10

With CC1(C)CCC(O)C=C1/C=C/C(=O)/C=C/c1cnc2ccccc2c1 (centres unmarked) [Compound B95] the “competitive binding to the hormone-binding pocket of the AR-LBD” value [1] was “competitive binding” and the “activity against Bic-LNCaP cells” value (Bic-LNCaP cells) was “remains active”.

— US8470889B2 (TRT Pharma Inc., priority 2008, dated 2013)
